Values of other authors in patent publication US7282487B2, “Method for treating bacterial infections in horses or pigs with tilmicosin” (priority 2004, dated 2007).

solubility in aqueous solutions: moderately soluble
Compound: CC[C@H]1OC(=O)C[C@@H](O)[C@H](C)[C@@H](OC2OC(C)C(O)C(N(C)C)C2O)[C@@H](CCN2C[C@@H](C)C[C@H](C)C2)C[C@@H](C)C(=O)/C=C/C(C)=C/[C@@H]1COC1OC(C)C(O)C(OC)C1OC (stereo partly shown) [tilmicosin, Tilmicosin]
